Experimental data published in ChEMBL document CHEMBL5260845, “Flavone-based arylamides as potential anticancers: Design, synthesis and in vitro cell-based/cell-free evaluations” (2020).
Calls of active or inactive are those of the source. No cut-off for these calls is given here.

Key:
IGROV-1 = experiment: Antiproliferative activity against human IGROV-1 cells assessed as cell growth inhibition at 10 uM by SRB assay relative to control; type: functional
EKVX = experiment: Antiproliferative activity against human EKVX cells assessed as cell growth inhibition at 10 uM by SRB assay; type: functional
HL-60 = experiment: Antiproliferative activity against human HL-60 cells assessed as cell growth inhibition at 10 uM by SRB assay; type: functional, cell-based
MDA-MB-231 = experiment: Antiproliferative activity against human MDA-MB-231 cells assessed as inhibition of cell growth at 10 uM by SRB assay relative to control; type: functional
UACC-257 = experiment: Antiproliferative activity against human UACC-257 cells assessed as cell growth inhibition at 10 uM by SRB assay relative to control; type: functional
CCRF-CEM = experiment: Antiproliferative activity against human CCRF-CEM cells assessed as cell growth inhibition at 10 uM by SRB assay; type: functional, cell-based
HOP-62 [1] = experiment: Antiproliferative activity against human HOP-62 cells assessed as cell growth inhibition at 10 uM by SRB assay; type: functional, cell-based
SF-268 = experiment: Antiproliferative activity against human SF-268 cells assessed as cell growth inhibition at 10 uM by SRB assay relative to control; type: functional
RXF 393 = experiment: Antiproliferative activity against human RXF 393 cells assessed as inhibition of cell growth at 10 uM by SRB assay relative to control; type: functional
LOX IMVI = experiment: Antiproliferative activity against human LOX IMVI cells assessed as cell growth inhibition at 10 uM by SRB assay relative to control; type: functional
OVCAR-8 = experiment: Antiproliferative activity against human OVCAR-8 cells assessed as cell growth inhibition at 10 uM by SRB assay relative to control; type: functional
ACHN = experiment: Antiproliferative activity against human ACHN cells assessed as inhibition of cell growth at 10 uM by SRB assay relative to control; type: functional; settings: pooled result: one value given for 2 cell lines, strains, targets or settings
SN12C = experiment: Antiproliferative activity against human SN12C cells assessed as inhibition of cell growth at 10 uM by SRB assay relative to control; type: functional
Hs-578T = experiment: Antiproliferative activity against human Hs-578T cells assessed as inhibition of cell growth at 10 uM by SRB assay relative to control; type: functional
SF-295 [2] = experiment: Antiproliferative activity against human SF-295 cells assessed as cell growth inhibition at 10 uM by SRB assay; type: functional, cell-based
K562 = experiment: Antiproliferative activity against human K562 cells assessed as cell growth inhibition at 10 uM by SRB assay; type: functional, cell-based
M14 = experiment: Antiproliferative activity against human M14 cells assessed as cell growth inhibition at 10 uM by SRB assay relative to control; type: functional
RPMI-8226 [3] = experiment: Antiproliferative activity against human RPMI-8226 cells assessed as cell growth inhibition at 10 uM by SRB assay; type: functional, cell-based
HOP-92 = experiment: Antiproliferative activity against human HOP-92 cells assessed as cell growth inhibition at 10 uM by SRB assay; type: functional, cell-based
NCI-H322M = experiment: Antiproliferative activity against human NCI-H322M cells assessed as cell growth inhibition at 10 uM by SRB assay; type: functional, cell-based
U-251 = experiment: Antiproliferative activity against human U-251 cells assessed as cell growth inhibition at 10 uM by SRB assay relative to control; type: functional
SF-295 [4] = experiment: Antiproliferative activity against human SF-295 cells assessed as cell growth inhibition at 10 uM by SRB assay relative to control; type: functional
NCI-H23 = experiment: Antiproliferative activity against human NCI-H23 cells assessed as cell growth inhibition at 10 uM by SRB assay; type: functional
SNB-19 = experiment: Antiproliferative activity against human SNB-19 cells assessed as cell growth inhibition at 10 uM by SRB assay relative to control; type: functional
A549 = experiment: Antiproliferative activity against human A549 cells assessed as cell growth inhibition at 10 uM by SRB assay; type: functional, cell-based
SK-MEL-5 = experiment: Antiproliferative activity against human SK-MEL-5 cells assessed as cell growth inhibition at 10 uM by SRB assay relative to control; type: functional
786-0 = experiment: Antiproliferative activity against human 786-0 cells assessed as inhibition of cell growth at 10 uM by SRB assay relative to control; type: functional
SF-539 = experiment: Antiproliferative activity against human SF-539 cells assessed as cell growth inhibition at 10 uM by SRB assay relative to control; type: functional
OVCAR-4 = experiment: Antiproliferative activity against human OVCAR-4 cells assessed as cell growth inhibition at 10 uM by SRB assay relative to control; type: functional
UACC-62 = experiment: Antiproliferative activity against human UACC-62 cells assessed as cell growth inhibition at 10 uM by SRB assay relative to control; type: functional
NCI-H460 [5] = experiment: Antiproliferative activity against human NCI-H460 cells assessed as cell growth inhibition at 10 uM by SRB assay; type: functional, cell-based
OVCAR-3 = experiment: Antiproliferative activity against human OVCAR-3 cells assessed as cell growth inhibition at 10 uM by SRB assay relative to control; type: functional; settings: pooled result: one value given for 2 cell lines, strains, targets or settings
HCT-116 [6] = experiment: Antiproliferative activity against human HCT-116 cells assessed as cell growth inhibition at 10 uM by SRB assay relative to control; type: functional
SK-MEL-2 = experiment: Antiproliferative activity against human SK-MEL-2 cells assessed as cell growth inhibition at 10 uM by SRB assay relative to control; type: functional
NCI-H226 = experiment: Antiproliferative activity against human NCI-H226 cells assessed as cell growth inhibition at 10 uM by SRB assay; type: functional
Malme-3M = experiment: Antiproliferative activity against human Malme-3M cells assessed as cell growth inhibition at 10 uM by SRB assay relative to control; type: functional
SR = experiment: Antiproliferative activity against human SR cells assessed as cell growth inhibition at 10 uM by SRB assay; type: functional, cell-based
MOLT-4 = experiment: Antiproliferative activity against human MOLT-4 cells assessed as cell growth inhibition at 10 uM by SRB assay; type: functional, cell-based
DU-145 = experiment: Antiproliferative activity against human DU-145 cells assessed as inhibition of cell growth at 10 uM by SRB assay relative to control; type: functional
A498 = experiment: Antiproliferative activity against human A498 cells assessed as inhibition of cell growth at 10 uM by SRB assay relative to control; type: functional
NCI-H522 = experiment: Antiproliferative activity against human NCI-H522 cells assessed as cell growth inhibition at 10 uM by SRB assay; type: functional, cell-based
SNB-75 = experiment: Antiproliferative activity against human SNB-75 cells assessed as cell growth inhibition at 10 uM by SRB assay relative to control; type: functional
SK-MEL-28 = experiment: Antiproliferative activity against human SK-MEL-28 cells assessed as cell growth inhibition at 10 uM by SRB assay relative to control; type: functional
MDA-MB-435 = experiment: Antiproliferative activity against human MDA-MB-435 cells assessed as cell growth inhibition at 10 uM by SRB assay relative to control; type: functional
MCF7 = experiment: Antiproliferative activity against estrogen receptor positive human MCF7 cells assessed as inhibition of cell growth at 10 uM by SRB assay relative to control; type: functional
T47D = experiment: Antiproliferative activity against human T47D cells assessed as inhibition of cell growth at 10 uM by SRB assay relative to control; type: functional
BT-549 = experiment: Antiproliferative activity against triple negative human BT-549 cells assessed as inhibition of cell growth at 10 uM by SRB assay relative to control; type: functional
COLO 205 = experiment: Antiproliferative activity against human COLO 205 cells assessed as cell growth inhibition at 10 uM by SRB assay; type: functional, cell-based
PC-3 = experiment: Antiproliferative activity against human PC-3 cells assessed as inhibition of cell growth at 10 uM by SRB assay relative to control; type: functional
Prostatic carcinoma cell = experiment: Antiproliferative activity against human prostatic carcinoma cells assessed as cell growth inhibition at 10 uM by SRB assay relative to control; type: functional
HCT-116 [7] = experiment: Antiproliferative activity against human HCT-116 cells assessed as cell growth inhibition at 10 uM by SRB assay; type: functional, cell-based
SW-620 = experiment: Antiproliferative activity against human SW620 cells assessed as cell growth inhibition at 10 uM by SRB assay; type: functional, cell-based
RPMI-8226 [8] = experiment: Antiproliferative activity against human RPMI-8226 cells assessed as cell growth inhibition at 10 uM by SRB assay relative to control; type: functional
KM12 = experiment: Antiproliferative activity against human KM12 cells assessed as cell growth inhibition at 10 uM by SRB assay; type: functional, cell-based
HCT-15 = experiment: Antiproliferative activity against human HCT-15 cells assessed as cell growth inhibition at 10 uM by SRB assay; type: functional, cell-based
HOP-62 [9] = experiment: Antiproliferative activity against human HOP-62 cells assessed as cell growth inhibition at 10 uM by SRB assay relative to control; type: functional
Lung cancer cell line = experiment: Antiproliferative activity against human lung cancer cells assessed as cell growth inhibition at 10 uM by SRB assay relative to control; type: functional
HT-29 = experiment: Antiproliferative activity against human HT-29 cells assessed as cell growth inhibition at 10 uM by SRB assay; type: functional, cell-based
Ovarian cancer cell line = experiment: Antiproliferative activity against human ovarian cancer cells assessed as cell growth inhibition at 10 uM by SRB assay relative to control; type: functional
NCI-H460 [10] = experiment: Antiproliferative activity against human NCI-H460 cells assessed as cell growth inhibition at 10 uM by SRB assay relative to control; type: functional
HCC 2998 = experiment: Antiproliferative activity against human HCC 2998 cells assessed as cell growth inhibition at 10 uM by SRB assay; type: functional, cell-based

In the case of `COc1cc2oc(-c3cccc(NC(=O)c4ccc(Br)cc4)c3)cc(=O)c2c(OC)c1OC`, the inhibition at 10 µM (IGROV-1) is reported as 52.9%, the inhibition (EKVX) is reported as “Active” and the inhibition at 10 µM (EKVX) is reported as < 50%. For the same molecule, the inhibition (HL-60) was “Active”, the inhibition at 10 µM (MDA-MB-231) was 73.4% and the inhibition at 10 µM (UACC-257) was 39.1%. For the same molecule, the inhibition (CCRF-CEM) was “Active”, the inhibition (HOP-62 [1]) was “Active” and the inhibition at 10 µM (SF-268) was > 50%. The inhibition at 10 µM (RXF 393) was 63.6%, the inhibition at 10 µM (LOX IMVI) was 50.8% and the inhibition at 10 µM (OVCAR-8) was 52.9%. For the same molecule, the inhibition at 10 µM (ACHN) was 63.6%, the inhibition at 10 µM (SN12C) was 63.6% and the inhibition at 10 µM (Hs-578T) was 73.4%. The inhibition (SF-295 [2]) was “Active”, the inhibition (K562) was “Active” and the inhibition at 10 µM (M14) was 50.8%. The inhibition (RPMI-8226 [3]) was “Active”, the inhibition (HOP-92) was “Active” and the inhibition (NCI-H322M) was “Active”. For the same molecule, the inhibition at 10 µM (U-251) was > 50%, the inhibition at 10 µM (SF-295 [4]) was > 50% and the inhibition (NCI-H23) was “Active”. The inhibition at 10 µM (NCI-H23) was < 50%, the inhibition at 10 µM (SNB-19) was 41.2% and the inhibition (A549) was “Active”. It also gave an inhibition at 10 µM (SK-MEL-5) of 50.8%, an inhibition at 10 µM (786-0) of 84% and an inhibition at 10 µM (SF-539) of 47.1%. For the same molecule, the inhibition at 10 µM (OVCAR-4) was 52.9%, the inhibition at 10 µM (UACC-62) was 39.1% and the inhibition (NCI-H460 [5]) was “Active”. For the same molecule, the inhibition at 10 µM (OVCAR-3) was 52.9%, the inhibition at 10 µM (HCT-116 [6]) was 84% and the inhibition at 10 µM (SK-MEL-2; Homo sapiens, SK-MEL-2, dose 10 µM) was ≤ 46%. The “inhibition (INH)” value (SK-MEL-2; dose 10 µM) was 39.07%, the inhibition (NCI-H226) was “Active” and the inhibition at 10 µM (NCI-H226) was < 50%. For the same molecule, the inhibition at 10 µM (Malme-3M) was 39.1%, the inhibition (SR) was “Active” and the inhibition (MOLT-4) was “Active”. The inhibition at 10 µM (DU-145) was > 50%, the inhibition at 10 µM (A498) was 63.6% and the inhibition (NCI-H522) was “Active”. The inhibition at 10 µM (SNB-75) was > 50%, the inhibition at 10 µM (SK-MEL-28) was 50.8% and the inhibition at 10 µM (MDA-MB-435) was 50.8%.

With `CN(Cc1cnc2nc(N)nc(N)c2n1)c1ccc(C(=O)N[C@@H](CCC(=O)O)C(=O)O)cc1` [METHOTREXATE] the inhibition at 10 µM (MDA-MB-231) was 40.1%, the inhibition at 10 µM (MCF7) was 82.8% and the inhibition at 10 µM (T47D) was 53.8%. The inhibition at 10 µM (BT-549) was 53.1%.

With `COc1cc2oc(-c3cccc(C(=O)Nc4ccc(C#N)cc4)c3)cc(=O)c2c(O)c1OC` the inhibition (COLO 205) was “Active”, the inhibition at 10 µM (PC-3) was 92.1% and the inhibition at 10 µM (Prostatic carcinoma cell) was > 50%. For the same molecule, the inhibition (HCT-116 [7]) was “Active”, the inhibition at 10 µM (OVCAR-8) was 70.9% and the inhibition (SW-620) was “Active”. For the same molecule, the inhibition at 10 µM (RPMI-8226 [8]) was 82.6%, the inhibition (NCI-H23) was “Active” and the inhibition (KM12) was “Active”. For the same molecule, the inhibition (HCT-15) was “Active”, the inhibition at 10 µM (HOP-62 [9]) was 31.8% and the inhibition (A549) was “Active”. The inhibition at 10 µM (OVCAR-4) was 88.3%, the inhibition at 10 µM (UACC-62) was 50.5% and the inhibition at 10 µM (Lung cancer cell line) was > 50%. For the same molecule, the inhibition (NCI-H226) was “Active”, the inhibition at 10 µM (Malme-3M) was 52.3% and the inhibition at 10 µM (DU-145) was 65.8%. The inhibition (HT-29) was “Active”, the inhibition at 10 µM (SK-MEL-28) was 67.2% and the inhibition at 10 µM (Ovarian cancer cell line) was > 50%. For the same molecule, the inhibition at 10 µM (NCI-H460 [10]) was 81.1% and the inhibition (HCC 2998) was “Active”.
